Data on 1 compound can be found in EPA's ToxValDB 9.5 (doi:10.2903/j.efsa.2005.29r).

Values joined by “and” are separate entries in the source; they are usually repeats but may differ in a detail not shown here. Identical values can stand only once. Some results are limits rather than exact numbers.

For one data set, the system named is Aphidius rhopalosiphi. The settings on record: not reported; mortality.
The test system of another data set is Daphnia magna. The settings on record: chronic/long-term.
The test system of a further data set is Coturnix coturnix. The settings on record: oral.
A further data set concerns Canidae. Particulars: subchronic; duration: 90 days; oral; Dog Other; clinical signs.
For the next data set, the system named is Oryctolagus sp. The settings on record: developmental; development.
The test system of a further data set is Apis mellifera. The settings on record: acute, mortality.
For another data set, the system named is Oncorhynchus mykiss. Particulars: for NOEC: chronic/long-term.
The next data set deals with Typhlodromus pyri. The experiment in a line: LR50; higher = less toxic. Particulars: chronic/long-term; duration: 7 days; mortality.

Regarding `Cc1ccc(N(SC(F)(Cl)Cl)S(=O)(=O)N(C)C)cc1` [Tolylfluanid], the LC50 is over 1000 mg/kg with Tagia sp. (acute, duration: 14 days, mortality); over 5000 mg/kg in the data set with Coturnix coturnix (acute, duration: 5 days, diet, mortality); 0.045 µg/mL and 0.016 µg/mL in the data set with Oncorhynchus mykiss (acute, duration: 96 hours, mortality). Also, the NOEC turned out to be 24000 g/ha in the data set with Tagia sp. (chronic/long-term, reproduction); 1500 mg/kg-day in the data set with Rattus norvegicus (short-term, duration: 28 days, oral, diet); 791 mg/kg-day in the data set on Coturnix coturnix (reproduction developmental, duration: 21 weeks, diet); 44 µg/L in the data set on Oncorhynchus mykiss (duration: 28 days); 60 µg/L in the data set with Oncorhynchus mykiss (duration: 35 days). Besides, the LEL in the data set on Aphidius rhopalosiphi worked out at 2500 g/ha. The LD50 with Rattus norvegicus (acute, oral, mortality) was over 5000 mg/kg; with Coturnix coturnix (acute, mortality), over 2000 mg/kg; in the data set on Apis mellifera (duration: 48 hours, dermal) it was over 196 µg/piece; with Apis mellifera (oral, unspecified) it was over 197 µg/piece. The NOAEL worked out at 12 mg/kg-day with Rattus norvegicus (reproduction developmental, M, body weight); 33 mg/kg-day in the data set on Canidae; 25 mg/kg-day with Oryctolagus sp.. Besides, the NOAEC is 180 µg/L in the data set on Daphnia magna (duration: 40 days) and 99 µg/L with Daphnia magna (duration: 51 days). For the same compound, the LR50 in the data set with Typhlodromus pyri turned out to be 247 g/ha.
